Entries after “also recorded” stand apart in the source; their conditions may differ. Where a SMILES comes first, the peptide text is derived from it. [ ]: non-standard residue; d: D form. Phe(3,4-F2) = N[C@@H](Cc1ccc(F)c(F)c1)C(=O)O; Ala(4-thiazolyl) = N[C@@H](Cc1cscn1)C(=O)O; Phe(4-NH2) = Nc1ccc(C[C@H](N)C(=O)O)cc1; Met(O2) = CS(=O)(=O)CC[C@H](N)C(=O)O; Ala(cPr) = N[C@@H](CC1CC1)C(=O)O; Cha = N[C@@H](CC1CCCCC1)C(=O)O; β3hS = N[C@@H](CO)CC(=O)O; Orn = NCCC[C@H](N)C(=O)O
How the values were obtained:
ACE2 [1] = target: T1, ACE2 (Homo sapiens, UniProt Q9BYF1); assay: ELISA detection of ACE2 coated from a mixture with normal human serum; assay type: binding; settings: plate coated with normal human serum and exogenous ACE2; biotinylated peptide 100 nM; streptavidin-HRP, TMB, A450
Experimental: (§1) However, we observed a decreased detection sensitivity presumably due to the decreased amount of ACE2 being immobilized on the plate with many other serum proteins present. […] The plate was incubated with ABP N1 or control peptide, followed by streptavidin-HRP and TMB substrate. Absorbance was measured at 450 nm. The experiment was performed in technical triplicates (n = 3). Each data point, the mean signal as a bar, and error bars from experimental standard deviation, and statistical significance calculated with the unpaired Student’s t-test are shown. A serial dilution of soluble ACE2 was coated onto an ELISA plate (96-well format) overnight at 4 °C. The next day, the plate was blocked with 5% BSA in 1 × PBS supplement with 0.05% Tween-20 (PBST, pH 7.4) for 2–3 h at room temperature. […] Control groups are biotinylated peptide ABP N8 and PBST alone. The supernatant was then removed, and the wells were washed with PBST (3× 200 µL). Streptavidin-HRP conjugate in PBST (0.25 µg/mL, 100 µL) was added to each well and incubated for 30 min at room temperature. The plate was PBST-washed again (3 × 200 µL) before color development with 100 µL 1-Step™ Ultra TMB-ELISA Substrate Solution (Thermo Fisher, Catalog number 34028). After 10 min, the reaction was quenched with 2.0 M sulfuric acid (100 µL). Finally, the absorbance at 450 nm was measured on a microplate reader (BioTek) for all treated wells. […]

ACE2 [2] = target: T1, ACE2; assay: Bio-layer interferometry (BLI) binding of immobilized biotinylated peptides to ACE2; settings: 500 nM of ACE2
Experimental: (§2) Peptide binding validation was carried out using the ForteBio Octet RED96 system. The chamber temperature was kept constant at 30 °C with a plate agitation speed at 1000 rpm. Briefly, streptavidin (SA)-coated biosensor tips were dipped into 200 μL of 1.0–2.0 μM biotinylated peptide solution (in a kinetic buffer (K.B.): 1 × PBS with 0.1% BSA and 0.02% Tween-20) for peptides immobilization. Once loaded with peptides, the tips were then moved into solutions containing various concentrations (1000, 500, 250, 125, and 62.5 nM) of recombinant ACE2 protein (purchased from Sino Biological, Catalog number 10108-H08H) in the K.B. to obtain the association curve. After the 180 s association step, the tips were moved back into the K.B. to obtain the dissociation curve. Buffer-only and protein-only conditions (concentration at 1000 nM) were used as references for background subtraction. The association and dissociation curves were fitted with the ForteBio Biosystems Data Analysis Software under 5 experimental conditions (n = 5, global fitting algorithm, binding model 1:1) to calculate the apparent dissociation constant (KD).
Supplementary Note 4: Binding affinity measurements
4.1 BLI raw binding data of noncanonical peptides […]
affinity was reported using the kinetic fitting results ( KD is calculated by divide the […]
off rate by on rate). […] The ACE2
(§3) (1 picture or pasted object on this page, not shown here)
4.2 BLI raw binding data of canonical peptides
Supplementary Fig. 20. The BLI binding curve fitting (red lines) of ABP C1-C4 and ABP C7-C9 from Library 1 AS-MS against ACE2.
ACE2 concentration was 250 nM.

ACE2 [3] = target: T1, ACE2; assay: ACE2 pulldown from human serum (SDS-PAGE); assay type: binding; settings: biotinylated peptide on streptavidin magnetic beads, ACE2 in 5% normal human serum, 1.0 h 4 °C, 6 M urea elution
Experimental: After removing the supernatant and washing off the unbound fraction, the bound material was eluted with a high concentration of urea and analyzed using the sodium dodecyl sulfate–polyacrylamide gel electrophoresis (SDS-PAGE). […] Bound ACE2 was eluted for subsequent analysis. b The SDS-PAGE image with samples showing from left to right lanes: (1) molecular weight standard; (2) purified ACE2 protein (1.5 µg) as a loading control; (3) normal human serum as a control; (4) normal human serum mixed with ACE2 (1.5 µg); (5) elution of the bound fraction from the magnetic beads. NHS, Normal Human Serum (5%). Following a previous protocol, streptavidin-coated magnetic beads (100 µL, at 10 mg/mL) were pre-washed with blocking buffer (1 × PBS with 0.05% Tween-20, pH 7.4) and captured on a magnetic separation rack. The beads were then re-suspended in 1.0 mL of the same blocking buffer. […] After 30 min of incubation at 4 °C, the supernatant was removed and the beads were washed with 1 × PBS (3 × 1.0 mL) before incubation with the protein mixture. Soluble ACE2 (5 µL, 0.62 mg/mL) was mixed with 50 µL normal human serum in 1 × PBS (pH 7.4) to a final volume of 1.0 mL. The magnetic beads displaying immobilized ABP N1 were then added into the protein complex. […]

ACE2 [4] = target: T1, ACE2; assay: ELISA detection of ACE2 coated from 1 x PBS; assay type: binding; settings: ACE2 in 1 x PBS 10 pM-100 nM coated; biotinylated peptide 100 nM; streptavidin-HRP, TMB, A450
Experimental: as §1

12ca5 = assay: BLI binding to an unrelated (off-target) protein
Experimental: as §2, with “(KD). […]” for “(KD).”
4.4 The binding of ABP noncanonical peptides to an unrelated protein
N6, and N8 to an unrelated protein, 12ca5, measured by BLI at concentration
as §3

ACE2 [5] = target: T1, ACE2; assay: BLI binding competition of known ACE2 binders (AngII, MLN-4760) on the ABP-ACE2 interaction; parameters: Soluble ACE2 (5 µL, 0.62 mg/mL) was mixed with 50 µL normal human serum; settings: immobilized biotinylated peptide

T1 sequence (Q9BYF1 18-740 limits assumed): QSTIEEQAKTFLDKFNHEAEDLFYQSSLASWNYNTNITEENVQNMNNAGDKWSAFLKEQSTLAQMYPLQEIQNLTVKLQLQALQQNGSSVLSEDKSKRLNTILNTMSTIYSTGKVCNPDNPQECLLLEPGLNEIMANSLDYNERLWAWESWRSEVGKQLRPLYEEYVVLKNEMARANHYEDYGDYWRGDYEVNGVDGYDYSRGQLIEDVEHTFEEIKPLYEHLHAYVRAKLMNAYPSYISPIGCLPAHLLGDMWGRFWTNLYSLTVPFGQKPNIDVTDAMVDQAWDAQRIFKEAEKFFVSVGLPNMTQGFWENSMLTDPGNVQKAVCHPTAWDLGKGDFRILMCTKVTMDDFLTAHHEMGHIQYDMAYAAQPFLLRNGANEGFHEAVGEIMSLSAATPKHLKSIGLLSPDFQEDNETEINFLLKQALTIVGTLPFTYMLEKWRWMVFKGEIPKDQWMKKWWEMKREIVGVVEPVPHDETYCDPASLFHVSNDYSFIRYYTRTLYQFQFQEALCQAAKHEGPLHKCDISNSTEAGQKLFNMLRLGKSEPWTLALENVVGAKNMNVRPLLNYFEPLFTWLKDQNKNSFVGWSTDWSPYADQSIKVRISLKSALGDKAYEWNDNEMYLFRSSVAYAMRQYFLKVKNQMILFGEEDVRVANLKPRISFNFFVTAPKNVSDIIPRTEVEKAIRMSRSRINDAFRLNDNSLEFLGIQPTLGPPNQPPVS

Structure (SMILES): CS(=O)(=O)CC[C@H](NC(=O)[C@H](CC1CCCCC1)NC(=O)[C@H](Cc1cscn1)NC(=O)C[C@H](CO)NC(=O)[C@H](CCCN)NC(=O)[C@H](CCC(N)=O)NC(=O)[C@H](CCCN)NC(=O)[C@H](Cc1ccc(F)c(F)c1)NC(=O)[C@H](Cc1cscn1)NC(=O)[C@@H](N)CC1CC1)C(=O)NCC(=O)N[C@@H](Cc1ccc(N)cc1)C(=O)N[C@@H](CCCCN)C(N)=O [ABP N1] (H-[Ala(cPr)][Ala(4-thiazolyl)][Phe(3,4-F2)][Orn]Q[Orn][β3hS][Ala(4-thiazolyl)][Cha][Met(O2)]G[Phe(4-NH2)]K-NH2)
- ELISA detection of ACE2 in human serum (in words) (ACE2 [1]): dose-dependent ACE2 detection
- BLI response signal (ACE2 [2]): ~ 1.3 nm
- pull-down of ACE2 from human serum (ACE2 [3]): selective enrichment of ACE2 protein
- ELISA detection of ACE2 (in words) (ACE2 [4]): picomolar concentration of ACE2 was detected
- higher signal for ACE2 than for 12ca5 (12ca5; 500 nM ACE2 versus 500 nM 12ca5, BLI): ~ 5 fold
- BLI response signal (12ca5; 500 nM of the off-target protein (12ca5)): 0.25 nm
- binding to unrelated protein 12ca5 (in words) (12ca5; BLI, 12ca5 at 500 nM): minimal binding; also recorded: No apparent binding
- inhibition of ABP binding to ACE2 by AngII (ACE2 [5]; 500 nM ACE2 + 5 uM AngII (10-fold excess)): not inhibited
- inhibition of ABP binding to ACE2 by MLN-4760 (ACE2 [5]; 500 nM ACE2 + 5 uM MLN-4760 (10-fold excess)): partially inhibited

Source: PMC9814530, “Rapid de novo discovery of peptidomimetic affinity reagents for human angiotensin converting enzyme 2” (Communications Chemistry, 2022)
